Results taken from patent publication US20080312333A1, “Agent for Preventing/Ameliorating Life Style-Related Diseases Containing Turmeric Essential Oil Component” (Kaneka Corporation, priority 2004, published 2008).

Target: T1, PPARγ (Homo sapiens, UniProt P37231)
T1 construct: GAL4 (yeast transcription factor, amino acids 1-147); expressed in transfected cells; host or cells: CV-1 cells (African green monkey kidney)
T1 sequence (P37231 204-505): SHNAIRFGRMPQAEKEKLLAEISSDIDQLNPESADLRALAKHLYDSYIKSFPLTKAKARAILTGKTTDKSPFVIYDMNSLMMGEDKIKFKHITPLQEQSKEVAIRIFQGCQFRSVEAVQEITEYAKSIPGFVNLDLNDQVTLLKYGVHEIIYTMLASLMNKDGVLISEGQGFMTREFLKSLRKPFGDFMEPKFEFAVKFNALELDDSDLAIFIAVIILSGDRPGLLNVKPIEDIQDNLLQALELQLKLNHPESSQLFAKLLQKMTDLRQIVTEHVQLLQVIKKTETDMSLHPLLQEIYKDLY
Test: PPARγ ligand activity, GAL4-PPARγ ligand binding site luciferase reporter in CV-1 cells
Format: cell-based
Conditions: for PPARγ ligand activity: ratio to no treatment control (1.00), mean ± standard error, n = 3
Method: CV-1 cells (male African green monkey kidney-derived cultured cells) were seeded onto a 96-well culture plate (6×10^3 cells/well) and cultured under conditions of 37° C. and 5% CO2 for 24 hours. The medium used was DMEM (Dulbecco's modified Eagle medium; GIBCO) supplemented with 10% FBS (fetal bovine serum), 10 ml/L of a solution of penicillin and streptomycin (5,000 IU/ml and 5,000 μg/ml, respectively; GIBCO) and 37 mg/L of ascorbic acid (Wako Pure Chemical Industries, Ltd.). […] Each sample was dissolved in dimethyl sulfoxide (DMSO) and the solution, or DMSO used in a no treatment control group, was added to the medium to each concentration given in Table 4. Cells were washed with phosphate-buffered saline (PBS+) containing Ca and Mg, then luclite (PerkinElmer), a luciferase chemiluminescence reagent, was added, and the luciferase-due chemiluminescence intensity was measured using a TopCount microplate scintillation/luminescence counter (PerkinElmer).

PPARγ ligand activity (addition level 2 μg/ml): 1.51 ± 0.14 | PPARγ ligand activity (addition level 5 μg/ml): 2.33 ± 0.59 | PPARγ ligand activity (in words) (summary of Table 4): found to have PPARγ ligand activity
Structure (SMILES): CC(C)=CC(=O)C[C@H](C)c1ccc(C)cc1 [ar-turmerone]
